How the values were obtained:
C57BL/6 normal mice = experiment: IOP measurement (applanation tonometer) after transscleral ciliary body PDT in C57BL/6 normal mice; type: in vivo, mouse
Method: (§1) All experiments were performed in accordance with the Association for Research in Vision and Ophthalmology Statement for the Use of Animals in Ophthalmic and Vision Research. C57BL/6 female mice aged 3 months (n=20) were used as the normal model. DBA/2J female mice aged 8 months (n=20) were used as the glaucoma mouse model. One eye of each animal was treated and the other eye served as a control (for both the normal and glaucoma models). Animals were housed in covered cages, were fed with a standard rodent diet ad libitum and were kept under constant 12 hour light-12 hour dark cycles. For general anesthesia, a mixture of ketamine (100 mg/kg) and xylazine (9 mg/kg) was administered intraperitoneally.
Verteporfin photosensitizer (Novartis Ophthalmics, Inc., Duluth, Ga.) was used in these experiments. The mice were systemically anesthetized prior to PDT, and the photosensitizer dye was administered to the animals by tail vain injections using a 30 G needle 5 minutes before laser irradiation. A dose of 2.0 or 4.0 mg/kg was used in C57BL/6 normal mice and of 1.0 mg/kg was used in DBA/2J mice. The laser irradiation to the ciliary body was applied transsclerally using a 600 μm optical fiber at a wavelength of light of 689 nm from a Diode Laser, with an irradiance of 1800 mW/cm^2 and a fluence of 100 J/cm^2 (Lumenis, Santa Clara, Calif.). […] In the C57BL/6 and DBA/2J mice, 16 and 8 spots, respectively, were irradiated to overlap with one another. In the eyes prepared for lectin labeling and terminal deoxynucleotide transferase-mediated nick end labeling (TUNEL) staining (a measure of apoptosis), PDT was performed in C57BL/6 mice to cover 180 degrees of the ciliary body at a 4.0 mg/kg verteporfin dose to compare the degree of staining between irradiated area and non-irradiated area. Retreatment was performed in C57BL/6 normal mice which had been treated with 2.0 mg/kg of verteporfin after the IOP measurement at post-PDT day 7 using the same light parameters.
The IOP was measured using a previously reported applanation tonometer (Ahamed et al. (2003) IOVS 44:ARVO E-Abstract 3336) (n=12 in DBA/2J mice, n=5 in C57BL/6 mice at each dose). The principle of applanation tonometry employs fiber-optic gauges which are designed around a Fabry-Perot interferometer (FPI) (FTI-10; FISO Technologies, Inc., Quebec, Canada). FPI consists of two mirrors facing each other, the space separating the mirrors being called the cavity length. Light reflected in the FPI is wavelength-modulated in exact accordance with the cavity length. FPI gauges convert pressure into cavity length variations which correlate with IOP.
IOP was measured under general anesthesia. Standardization of the plane of anesthesia was obtained as described previously (John et al. (1997) INVEST. OPHTHALMOL. VIS. SCI. 38:249-53). Anesthesia was administered to one mouse at a time. […] Then anesthesia was injected in the next mouse.
As soon as the mice were anesthetized sufficiently, they were placed on a surgical platform. When the pressure sensor applanated a central area of mouse cornea under a dissecting microscope, the IOP (psi) was measured by the device 10 times automatically. The resulting pressures were converted into mmHg units by multiplying the obtained mean value by […]. The LOP was measured every 2 days in the first week, then twice a week until 4 weeks after PDT, and then once a week until 8 weeks after PDT.

DBA/2J glaucoma mice = experiment: IOP measurement (applanation tonometer) after transscleral ciliary body PDT in DBA/2J glaucoma mice; type: in vivo, mouse
Method: as §1
DBA/2J mice spontaneously develop essential iris atrophy, pigment dispersion, and glaucomatous changes. The IOP becomes elevated in most mice by the age of 9 months, which can be followed by ganglion cell loss, optic nerve atrophy and optic nerve cupping. As glaucoma developed, ganglion cell loss and mild cupping of the optic nerve were present in some animals by 11 months and in the majority of mice by the age of 22 months.
Verteporfin photosensitizer (Novartis Ophthalmics, Inc., Duluth, Ga.) was used in these experiments. The mice were systemically anesthetized prior to PDT, and the photosensitizer dye was administered to the animals by tail vain injections using a 30 G needle 5 minutes before laser irradiation. A dose of 2.0 or 4.0 mg/kg was used in C57BL/6 normal mice and of 1.0 mg/kg was used in DBA/2J mice. The laser irradiation to the ciliary body was applied transsclerally using a 600 μm optical fiber at a wavelength of light of 689 nm from a Diode Laser, with an irradiance of 1800 mW/cm^2 and a fluence of 100 J/cm^2 (Lumenis, Santa Clara, Calif.). Transscleral irradiation of the ciliary body was performed with applications for 360 degrees of the corneoscleral limbus in C57BL/6 normal mice and for 180 degrees in DBA/2J mice. In the C57BL/6 and DBA/2J mice, 16 and 8 spots, respectively, were irradiated to overlap with one another. In the eyes prepared for lectin labeling and terminal deoxynucleotide transferase-mediated nick end labeling (TUNEL) staining (a measure of apoptosis), PDT was performed in C57BL/6 mice to cover 180 degrees of the ciliary body at a 4.0 mg/kg verteporfin dose to compare the degree of staining between irradiated area and non-irradiated area. Retreatment was performed in C57BL/6 normal mice which had been treated with 2.0 mg/kg of verteporfin after the IOP measurement at post-PDT day 7 using the same light parameters.
The IOP was measured using a previously reported applanation tonometer (Ahamed et al. (2003) IOVS 44:ARVO E-Abstract 3336) (n=12 in DBA/2J mice, n=5 in C57BL/6 mice at each dose). The principle of applanation tonometry employs fiber-optic gauges which are designed around a Fabry-Perot interferometer (FPI) (FTI-10; FISO Technologies, Inc., Quebec, Canada). FPI consists of two mirrors facing each other, the space separating the mirrors being called the cavity length. Light reflected in the FPI is wavelength-modulated in exact accordance with the cavity length. […]
IOP was measured under general anesthesia. […]
As soon as the mice were anesthetized sufficiently, they were placed on a surgical platform. When the pressure sensor applanated a central area of mouse cornea under a dissecting microscope, the IOP (psi) was measured by the device 10 times automatically. […]

verteporfin
reduction of mean IOP of treated eyes compared to the control eyes (C57BL/6 normal mice; 2 mg/kg i.v., 360 degrees, 3 days after treatment, p<0.01): 41.3%
reduction of mean IOP of treated eyes compared to the control eyes (C57BL/6 normal mice; 2 mg/kg i.v., 689 nm, 100 J/cm^2, 360 degrees, 1 day after treatment, p<0.05): 35.1%
IOP reduction, preliminary experiments (C57BL/6 normal mice; 2.0 mg/kg, 180° of the ciliary body irradiated): significant IOP reduction was not obtained
time by which mean IOP returned to the level of the fellow control eyes (C57BL/6 normal mice; 2.0 mg/kg, after first treatment): ≤ 7 days
mean IOP of treated eyes (C57BL/6 normal mice; 2 mg/kg, retreatment at day 7, 10 days after first PDT): 8.7±2.6 mmHg
mean IOP of treated eyes (C57BL/6 normal mice; 2 mg/kg, retreatment at day 7, 14 days after first PDT): 9.5±2.1 mmHg
time by which mean IOP returned to the level of the control eyes (C57BL/6 normal mice; 2 mg/kg, with retreatment at day 7, days after PDT): ≤ 17 days
mean IOP in treated eyes versus fellow control eyes (C57BL/6 normal mice; 2 mg/kg, with retreatment, 28 and 42 days after PDT): statistically lower than the level of fellow control eyes
duration of significant reduction of mean IOP (C57BL/6 normal mice; 4 mg/kg): 14 days
mean IOP of treated eyes (C57BL/6 normal mice; 4 mg/kg i.v., 360 degrees, 1 day after treatment, p<0.05): 9.2±2.4 mmHg
time by which mean IOP returned to the level of the fellow control eyes (C57BL/6 normal mice; 4 mg/kg, after treatment): ≤ 17 days
reduction of mean IOP of treated eyes compared to the control eyes (C57BL/6 normal mice; 4 mg/kg, 1 day after treatment): 42.1%
reduction of mean IOP of treated eyes compared to the control eyes (C57BL/6 normal mice; 4 mg/kg, 5 days after treatment): 47.3%
mean IOP of treated eyes (minimum) (C57BL/6 normal mice; 4 mg/kg, 5 days after treatment, p<0.01): 7.2±1.9 mmHg
duration of significant reduction of mean IOP (C57BL/6 normal mice; treated normal mice eyes (2.0 and 4.0 mg/kg)): 7 to 17 days
mean IOP of treated eyes (DBA/2J glaucoma mice; 1.0 mg/kg i.v., 689 nm, 100 J/cm^2, 180 degrees, 1 day after treatment): 15.9±5.7 mmHg
difference of mean IOP between fellow control eyes and treated eyes (DBA/2J glaucoma mice; 1.0 mg/kg, 180 degrees, 1 day after PDT): no significant difference
mean IOP of treated eyes (DBA/2J glaucoma mice; 1.0 mg/kg, 180 degrees, 3 days after PDT): 9.5±3.4 mmHg
reduction of mean IOP of treated eyes compared to fellow control eyes (DBA/2J glaucoma mice; 1.0 mg/kg, 180 degrees, 3 days after PDT, p<0.05): 40.8%
IOP reduction (DBA/2J glaucoma mice; 1.0 mg/kg, treatment of 180°): significant reduction of IOP

— patent publication US10272261B2, “Methods and compositions for treating ocular glaucoma” (Massachusetts Eye and Ear Infirmary, priority 2004, dated 2019)
